Experimental data as given in US20040157837A1, “Combinations for the treatment of fungal infections” (priority 2002, published 2004).

Experiments:
[1] = test system: Candida albicans Strain 17; assay: Anti-proliferation assay, Candida albicans Strain 17; type: cell-based; settings: STRAIN17, Amphotericin B 0.00 μM (r16), read-out: Percent inhibition of proliferation
Text: (§1) Using the method described below, we tested the ability of the combination of various concentrations of amphotericin B plus disulfiram to inhibit the proliferation of numerous yeast strains using particle density as an indicator of cell number.
(§2) Two clinical Candida albicans isolates (one triazole-resistant strain and one triazole-susceptible strain) were obtained from the culture collection if the Seattle Biomedical Research Institute (Seattle, Wash.). Additional fungal strains were obtained from the American Type Culture Collection triazole-resistant C. albicans: ATCC MYA-573, C. glabrata: ATCC 90030. Yeast cultures were stored in 15% glycerol at −70° C. Isolates were cultured in growth medium (RPMI 1640; 2% glucose without NaHCO3 and phenol red, buffered with 0.165 M MOPS to pH 7.0) at 35° C. for 24 hours prior to in vitro susceptibility testing. All media reagents were purchased from Sigma Chemical Co. (St. Louis, Mo.).
(§3) The following compounds were used: disulfiram and amphotericin B (both from Sigma Chemical Co.). In the anti-proliferation experiments, Gentian Violet was used as a positive control for antifungal activity. Stock solutions of each compound were prepared in DMSO and stored at −20° C. Prior to use, stock solutions were diluted in RPMI to produce 10× solutions. 10× disulfiram (0-7 μL) and 10× amphotericin B (0-7 μL) were then plated in 40 μL of in 384 well microtiter plates to form a matrix of compound combinations.
(§4) All antifungal susceptibility testing was performed according to document M-27A as published by the National Committee for Clinical Laboratory Standards (Reference Method for Broth Dilution Antifungal Susceptibility Testing of Yeasts (1997), Wayne, Pa.). Briefly, yeast inocula from overnight cultures were standardized to a turbidity equivalent to a 0.5 McFarland Standard using a spectrophotometer at 530 nm, giving rise to a stock solution of 1×10^6 cells/mL. Each yeast suspension was further diluted in growth medium to yield a final inoculum concentration of approximately 4×10^3 cells/mL. Forty microlitres of the inoculum were used to inoculate each well, resulting in a final concentration of 2×10^3 cells/mL. Drug-free controls were included on each plate. Plates were incubated for 16 hours at 32° C. The amount of cell growth was determined by particle density as read on a Nephelometer (BMG Lab Technologies; Durham, N.C.).

[2] = test system: Candida albicans MYA 573; assay: Anti-proliferation assay, Candida albicans MYA 573; type: cell-based; settings: MYA573, Amphotericin B 0.00 μM (r16), read-out: Percent inhibition of proliferation
Text: as §1, §2, §3, §4

[3] = test system: Candida albicans Strain 1; assay: Anti-proliferation assay, Candida albicans Strain 1; type: cell-based; settings: STRAIN1, Amphotericin B 0.00 μM (r16), read-out: Percent inhibition of proliferation
Text: as §1, §2, §3, §4

[4] = test system: Candida glabrata; assay: Anti-proliferation assay, Candida glabrata; type: cell-based; settings: Nakaseomyces glabratus, Amphotericin B 0.00 μM (r15), read-out: Percent inhibition of proliferation
Text: as §1, §2, §3, §4

[5] = test system: Aspergillus fumigatus; assay: Anti-proliferation assay, Aspergillus fumigatus; type: cell-based; settings: Amphotericin B 0.00 μM, read-out: Percent inhibition of proliferation
Experimental: as §1
The Aspergillus fumigatus strain was obtained from the American Type Culture Collection (ATCC 46645). Aspergillus cultures were stored in 15% glycerol at −70° C. Isolates were cultured on Sabouraud glucose (SAB) agar plates at 37° C. for 5 to 7 days. Condidia were collected by addung 5 to 10 mL of sterile saline containing 0.05% Tween 20 to the plates and loosening condidia with a swab. Using a pipette, condidia were collected suspension and placed in a sterile bottle. This was repeated for all plates. After harvesting the suspension was filtered through gauze into a clean, sterile bottle. The turbidity of the supernatants was measured spectrophometrically at 530 nm and the transmission adjusted to 80-82% with PBS (with 0.05% Tween 20) to yield an initial suspension of 1×10^6 CFU/mL.
as §3, §4

[6] = cited from earlier work

## CCN(CC)C(=S)SSC(=S)N(CC)CC [Disulfiram, bis(diethylthiocarbamoyl) disulfide]
[1]; Disulfiram 0.01 μM
  inhibition at 0.01 µM: -3.64%
[1]; Disulfiram 0.02 μM
  inhibition at 0.02 µM: -0.03%
[1]; Disulfiram 0.04 μM
  inhibition at 0.04 µM: -0.15%
[1]; Disulfiram 0.07 μM
  inhibition at 0.07 µM: 2.27%
[1]; Disulfiram 0.14 μM
  inhibition at 0.14 µM: 2.66%
[1]; Disulfiram 0.28 μM
  inhibition at 0.28 µM: 22.9%
[1]; Disulfiram 0.56 μM
  inhibition at 0.56 µM: 30.5%
[1]; Disulfiram 1.12 μM
  inhibition at 1.12 µM: 53.4%
[2]; Disulfiram 0.01 μM
  inhibition at 0.01 µM: -5.62%
[2]; Disulfiram 0.02 μM
  inhibition at 0.02 µM: 1.7%
[2]; Disulfiram 0.04 μM
  inhibition at 0.04 µM: 10.3%
[2]; Disulfiram 0.07 μM
  inhibition at 0.07 µM: 25.2%
[2]; Disulfiram 0.14 μM
  inhibition at 0.14 µM: 39.3%
[2]; Disulfiram 0.28 μM
  inhibition at 0.28 µM: 55.6%
[2]; Disulfiram 0.56 μM
  inhibition at 0.56 µM: 78.3%
[2]; Disulfiram 1.12 μM
  inhibition at 1.12 µM: 95%
[3]; Disulfiram 0.01 μM
  inhibition at 0.01 µM: 5.3%
[3]; Disulfiram 0.02 μM
  inhibition at 0.02 µM: 9.08%
[3]; Disulfiram 0.04 μM
  inhibition at 0.04 µM: 10.1%
[3]; Disulfiram 0.07 μM
  inhibition at 0.07 µM: 11.7%
[3]; Disulfiram 0.14 μM
  inhibition at 0.14 µM: 18.2%
[3]; Disulfiram 0.28 μM
  inhibition at 0.28 µM: 26.9%
[3]; Disulfiram 0.56 μM
  inhibition at 0.56 µM: 54.5%
[3]; Disulfiram 1.12 μM
  inhibition at 1.12 µM: 89.6%
[4]; Disulfiram 0.01 μM
  inhibition at 0.01 µM: -10.4%
[4]; Disulfiram 0.02 μM
  inhibition at 0.02 µM: -1.67%
[4]; Disulfiram 0.04 μM
  inhibition at 0.04 µM: 1.52%
[4]; Disulfiram 0.07 μM
  inhibition at 0.07 µM: 1.92%
[4]; Disulfiram 0.14 μM
  inhibition at 0.14 µM: 2.12%
[4]; Disulfiram 0.28 μM
  inhibition at 0.28 µM: 19.6%
[4]; Disulfiram 0.56 μM
  inhibition at 0.56 µM: 61.3%
[4]; Disulfiram 1.12 μM
  inhibition at 1.12 µM: 88.7%
[5]; Disulfiram 0.04 μM
  inhibition at 0.04 µM: 0.66%
[5]; Disulfiram 0.08 μM
  inhibition at 0.08 µM: -2.93%
[5]; Disulfiram 0.16 μM
  inhibition at 0.16 µM: -2.21%
[5]; Disulfiram 0.31 μM
  inhibition at 0.31 µM: -13.1%
[5]; Disulfiram 0.63 μM
  inhibition at 0.63 µM: -0.75%
[5]; Disulfiram 1.25 μM
  inhibition at 1.25 µM: 6.07%
[5]; Disulfiram 2.50 μM
  inhibition at […]: 14.9%
[5]; Disulfiram 5.00 μM
  inhibition at 5 µM: 31.7%
[5]; Disulfiram 10.00 μM
  inhibition at 10 µM: 37.2%
[6]; alcohol
  soluble in alcohol: about 3.8 mg/100 mL
[6]; water
  soluble in water: about 20 mg/100 mL
